In publication PMC9511777, “Novel lipid-coated mesoporous silica nanoparticles loaded with thymoquinone formulation to increase its bioavailability in the brain and organs of Wistar rats” (BMC Pharmacology & Toxicology, 2022):
Read-outs that look alike come from different tables or passages of the source.

What was measured:
[1] = Distribution of TQ in brain areas, liver and kidney (HPLC); type: in vivo, Wistar rats; details: male, Wistar, rat, oral, 60 mg/kg TQ, read-out: TQ distribution, Mean ± SEM
Procedure: Twenty-eight male Wistar rats with an average weight of 110±10 gm were allocated into four random groups (seven rats/group). Animals were kept in fixed housing circumstances (12 h light/dark cycles) and temperature (25 °C) for three days to acclimatize. The Institutional Animal Ethics Committee approved the protocol for the in vivo study (CU-I-F-28-21).
(§1) The four groups received oral dose day by day for 14 days as follows: The first group: the negative control group, received 1:9; DMSO: Saline. The second group: the free TQ group, received a 60 mg/kg free TQ (3). The third group: The MSNs group received a 60 mg/kg MSNs dose. The fourth group: the LB-MSNs group, received a dose of 60 mg/kg MSNs loaded with TQ and coated with lipids. On day 14, rats were decapitated, and rat brains, liver, and kidneys were dissected for histopathological examination and oxidative stress measurements. The duration time of our experiment and the TQ doses were determined following Sheikhbahaei et al. (2016). 's work.
(§2) On the 14th day of the experiment, all the experimental groups were sacrificed by decapitation. The brains of each animal were taken away after they were removed and put in an ice-cold Petri dish. The brain was sectioned into different regions (hippocampus, cortex, hypothalamus, thalamus, medulla, midbrain, cerebellum, and striatum). Each brain region was weighed and frozen until used in further measurements. Heidolph DIAX 900 was used to homogenize the brain sections weighed in 4 ml of ice-cold PBS (50 mM, pH 7.4). Then, for 15 minutes, the homogenates were separated using a high-speed cooling centrifuge. The centrifuge was set to 8000 RPM and 4°C (VS-18000 M small size, high speed, refrigerated centrifuge, Korea). The pure supernatant was collected and stored at -20°C for further analysis.
TQ was chromatographically identified at room temperature 25 °C. The mobile phase was 50: 30: **20 v/v/v methanol, acetonitrile, and potassium dihydrogen phosphate buffer (20 mM, pH 4.5), isocratically injected at a flow rate of 1 ml/min using the HPLC apparatus's C18 column (25 cm4.6 mm) (YL 9100 HPLC, USA).

[2] = system: Lipid peroxidation (MDA) levels; assay: Lipid peroxidation (MDA) levels in tissues; type: in vivo, Wistar rats; details: oral 60 mg/kg, 14 days
Procedure: as §1, §2
MDA was determined as a marker of lipid peroxidation using a method developed by Begona Ruiz-Larrea et al., which entailed detecting the thiobarbituric acid-reactive molecules. […] A spectrophotometer was used to measure the absorbance of the generated compound at 532 nm (Jenway UV-6420; Barloworld Scientific, Essex, UK).
(§3) We used The Statistical Package for Social Sciences (SPSS) software (version 19) to analyze the data. The mean and standard error of the results were calculated. […] The percentage difference, which reflects the percent change in value compared to the control, was also assessed. %Difference%D=treatedvalue-controlvalue/controlvalue×100%

Wistar rats = assay: Histopathological examination of the kidney, liver, and different brain areas (H & E); type: in vivo; details: H & E x400, oral 60 mg/kg, 14 days
Procedure: as §1
Each group's brain, liver, and kidney were fixed in a formalin buffered solution (10%) for twenty-four hours. Fixed specimens were rinsed with tap water before dehydrating with methyl, ethyl, and absolute dilutions. Specimens were cleaned in xylene and embedded in paraffin wax for 24 hours in a 56°C hot air oven. Microtome blocks of Paraffin bees wax tissue were sectioned at 8 microns on a slide, collected on glass slides, and removed paraffin stained with hematoxylin and eosin (H & E) stains. A light microscope was used to examine the slides (Zeiss, Germany).

Nitric oxide (NO) levels = Nitric oxide (NO) levels in tissues (Griess reaction); type: in vivo, Wistar rats; details: all the tested organs; oral 60 mg/kg, 14 days
Procedure: as §1
(§4) On the 14th day of the experiment, all the experimental groups were sacrificed by decapitation. […]
The nitric oxide assay was performed according to the Griess reaction method using biodiagnostic kit No. 25 33, Egypt. […] Absorption was measured using a spectrophotometer at […] (Jenway UV-6420; Barloworld Scientific, Essex, UK). NO levels were quantified as nitrite using the Griess reagent, according to Moshage et al..
as §3

NO and MDA metabolites = system: NO and MDA metabolites; design: method as in PMID 22309035; details: rat brain; 2, 5, or 10 mg/kg doses; cited from earlier work
Catalase activity = Catalase activity in tissues (Aebi's protocol); type: in vivo, Wistar rats; details: oral 60 mg/kg, 14 days
Procedure: as §1, §4
The catalase activity was determined according to Aebi’s protocol (spectrophotometry) using Biodiagnostic Kit No. CA 25 1, Egypt. […] The chromophore's absorbance at 510 nm is measured using a spectrophotometer (Jenway UV-6420; Barloworld Scientific, Essex, UK).
as §3

[3] = system: Reduced glutathione (GSH) levels; assay: Reduced glutathione (GSH) levels in tissues (Ellman's method); type: in vivo, Wistar rats; details: oral 60 mg/kg, 14 days
Procedure: as §1, §4
According to Ellman's method, the determination of Reduced Glutathione concentration (GSH) required using Biodiagnostic kit No. GR 25 11, Egypt. Ellman's method measured reduced glutathione levels, as the sulfhydryl group of […] lowers Ellman's reagent and produces 2-Nitro-smercaptobenzoic acid. The yellow-colored nitro-mercaptobenzoic acid was detected at 412 nm using a spectrophotometer (Jenway UV-6420; Barloworld Scientific, Essex, UK).
We used The Statistical Package for Social Sciences (SPSS) software (version 19) to analyze the data. The mean and standard error of the results were calculated. […]

SMILES: CC1=CC(=O)C(C(C)C)=CC1=O [TQ, 2-isopropyl-5-methyl-1,4-benzoquinone]
- concentration at 14 days ([1]; Cerebellum): 48 ± 18 ng/g
- concentration at 14 days ([1]; Cortex): 25 ± 4 ng/g
- concentration at 14 days ([1]; Hippocampus): 2 ± 0.3 ng/g
- concentration at 14 days ([1]; Hypothalamus): 10 ± 0.3 ng/g
- concentration at 14 days ([1]; Kidney): 112 ± 19 ng/g
- concentration at 14 days ([1]; Liver): 201 ± 24 ng/g
- concentration at 14 days ([1]; Medulla): 6 ± 1 ng/g
- concentration at 14 days ([1]; Midbrain): 7 ± 1 ng/g
- concentration at 14 days ([1]; Striatum): 13 ± 1 ng/g
- concentration at 14 days ([1]; Thalamus): 4 ± 1 ng/g
- MDA concentration change compared with control ([2]; all tested areas except the medulla): nonsignificant changes
- MDA level, significant increase compared with control ([2]; liver): 67.01%
- MDA level, significant decrease compared with control ([2]; medulla): 60.95%
- renal histopathological alterations (Wistar rats): mild histopathological alterations
- NO level change compared with negative control group (Nitric oxide (NO) levels): nonsignificant changes
- NO and MDA metabolites in the hippocampus (NO and MDA metabolites): decreased
- catalase activity change compared with negative control group (Catalase activity; all investigated areas except cerebellum, brain, kidney, hippocampus): no significant differences
- catalase activity, significant difference compared with negative control (direction not given) (Catalase activity; cerebellum): 55.4%
- GSH level change compared with negative control group ([3]; all investigated areas except the cerebellum): no significant changes
- GSH level, significant increase compared with control ([3]; cerebellum): 181.98%
